ChEMBL document CHEMBL6087446, “Hypoxia Activated Nitric Oxide Donor Compounds for the Prevention and Treatment of Myocardial Hypoxia-Induced Injury” (J Med Chem, 2025)
Activity calls are given as the source filed them. The rule behind the calls is not given here.

Assays:
H9c2 [1] = test: Induction of NO release in rat H9c2 cells under hypoxia condition at 10 uM by Griess reagent assay relative to control; format: functional
[2] = Induction of NO release in rat H9c2 cells at 10 uM by Griess reagent assay relative to control; format: functional
Mus musculus [3] = test: Prevention of myocardial hypoxia injury in isoproterenol-induced male C57 mouse myocardial injury model assessed as prevention of lamellar collagen fiber deposition at 5 mg/kg, IG once daily for 3 consecutive days by Masson staining based analysis; format: functional, organism-based; conditions: time 3.0 day
Mus musculus [4] = test: Prevention of myocardial hypoxia injury in isoproterenol-induced male C57 mouse myocardial injury model assessed as decrease in ACE expression at 5 mg/kg, IG once daily for 3 consecutive days by immunohistochemistry; format: functional, organism-based; conditions: time 3.0 day
H9c2 [5] = test: Prevention of hypoxia-induced decrease cell viability of rat H9c2 cells at 10 uM by CCK8 assay; format: functional, cell-based
Mus musculus [6] = test: Prevention of myocardial hypoxia injury in isoproterenol-induced male C57 mouse myocardial injury model assessed as prevention of lamellar collagen fiber deposition at 5 mg/kg, ip once daily for 3 consecutive days by Masson staining based analysis; format: functional, organism-based; conditions: time 3.0 day
Mus musculus [7] = test: Prevention of myocardial hypoxia injury in isoproterenol-induced male C57 mouse myocardial injury model assessed as decrease in mTORC1 expression at 5 mg/kg, IG once daily for 3 consecutive days by immunohistochemistry; format: functional, organism-based; conditions: time 3.0 day
H9c2 [8] = test: Induction of NO release in rat H9c2 cells under hypoxia condition at 10 uM measured for first 30 mins by Griess reagent assay relative to control; format: functional; conditions: 0.5 h
Mus musculus [9] = test: Prevention of myocardial hypoxia injury in isoproterenol-induced male C57 mouse myocardial injury model assessed as heart weight ratio at 5 mg/kg, ip once daily for 3 consecutive days (reference value: 0.60%); format: functional; conditions: time 3 day
[10] = Toxicity in male C57 mouse assessed as adverse effect at 405 mg/kg, ip measured up to 14 days observation period; format: organism-based; conditions: in vivo, 336 h, time < 14 day
Mus musculus [11] = test: Prevention of myocardial hypoxia injury in isoproterenol-induced male C57 mouse myocardial injury model assessed as pathological myocardial change by measuring myocardial cell damage at 5 mg/kg, IG once daily for 3 consecutive days by hematoxylin and eosin staining based analysis; format: functional, organism-based; conditions: time 3.0 day
H9c2 [12] = test: Prevention of hypoxia-induced apoptosis in rat H9c2 cells assessed as decrease in late apoptosis and necrosis by measuring reduced red fluorescence at 10 uM incubated for 4 hrs by confocal microscopy with Annexin V-FITC and propidium iodide (PI) double staining analysis; format: functional, cell-based
H9c2 [13] = test: Prevention of hypoxia-induced apoptosis in rat H9c2 cells assessed as decrease in early apoptosis by measuring reduced green fluorescence at 10 uM incubated for 4 hrs by confocal microscopy with Annexin V-FITC and propidium iodide (PI) double staining analysis; format: functional, cell-based
H9c2 [14] = test: Prevention of hypoxia-induced decrease in ATP level in rat H9c2 cells at 10 uM […] (Rvb =- 19.6 nmol/mg); format: ADME, cell-based; conditions: h9c2, 10 µM
Mus musculus [15] = test: Prevention of myocardial hypoxia injury in isoproterenol-induced male C57 mouse myocardial injury model assessed as prevention of bundle collagen fiber deposition at 5 mg/kg, IG once daily for 3 consecutive days by Masson staining based analysis; format: functional, organism-based; conditions: time 3.0 day
Mus musculus [16] = test: Prevention of myocardial hypoxia injury in isoproterenol-induced male C57 mouse myocardial injury model assessed as decrease in heart weight ratio at 5 mg/kg, ip once daily for 3 consecutive days (reference value: 0.68%); format: functional; parameters: scale not given: the % may be the effect or the level left; conditions: time 3 day
Mus musculus [17] = test: Prevention of myocardial hypoxia injury in isoproterenol-induced male C57 mouse myocardial injury model assessed as pathological myocardial change by cell damage at 5 mg/kg, ip once daily for 3 consecutive days by hematoxylin and eosin staining based analysis; format: functional, organism-based; conditions: time 3.0 day
Mus musculus [18] = test: Prevention of myocardial hypoxia injury in isoproterenol-induced male C57 mouse myocardial injury model assessed as decrease in myocardial size at 5 mg/kg, ip once daily for 3 consecutive days (reference value: 6.47 mm); format: functional; conditions: time 3 day

| SMILES | Activity (H9c2 [1]) | Activity [2] [%] | other results |
| --- | --- | --- | --- |
| CN(N=O)c1ccc(OCc2ccc([N+](=O)[O-])cc2Cl)cc1 | Active | <5 | – |
| CN(N=O)c1ccc(OCc2ccccc2[N+](=O)[O-])cc1 | Active | <5 | – |
| CN(N=O)c1ccc(OCc2ccc(Br)cc2[N+](=O)[O-])cc1 | – | <5 | – |
| Cc1ccc(COc2ccc(N(C)N=O)cc2)c([N+](=O)[O-])c1 | – | <5 | – |
| CN(N=O)c1ccc(OCc2c(Cl)cccc2[N+](=O)[O-])cc1 | Active | <5 | – |
| CN(N=O)c1ccc(OCc2cc(Cl)ccc2[N+](=O)[O-])cc1 | – | <5 | – |
| CN(N=O)c1ccc(OCc2ccc([N+](=O)[O-])cc2)cc1 | Active | <5 | – |
| Cc1ccc([N+](=O)[O-])c(COc2ccc(N(C)N=O)cc2)c1 | – | <5 | – |
| Cc1cc(COc2ccc(N(C)N=O)cc2)ccc1[N+](=O)[O-] | – | <5 | – |
| O=[N+]([O-])O[C@@H]1CO[C@H]2[C@@H]1OC[C@@H]2O [ISOSORBIDE MONONITRATE] | – | – | Activity (Mus musculus [3]): Active; N6 More Efficacious Than Ismn; Activity (Mus musculus [4]): Active; Activity (H9c2 [5]): Active; Partially Restores Cell Viability; Activity (Mus musculus [6]): inactive; Activity (Mus musculus [7]): Active; Activity (H9c2 [8]): ~30%; Activity (Mus musculus [9]): 0.55%; Activity [10]: Toxic; Activity (Mus musculus [11]): inactive; Activity (H9c2 [12]): Active; Reduced Red Fluorescence To Certain Extents; Activity (H9c2 [13]): Active; Activity (H9c2 [14]): 25.3 nmol/mg; Activity (Mus musculus [15]): Active; N6 More Efficacious Than Ismn; Activity (Mus musculus [16]): 0.61%; Activity (Mus musculus [17]): inactive; Activity (Mus musculus [18]): 3.93 mm |
| Cc1cc([N+](=O)[O-])ccc1COc1ccc(N(C)N=O)cc1 | Active | <5 | – |
| CN(N=O)c1ccc(OCc2ccc(Cl)cc2[N+](=O)[O-])cc1 | – | <5 | – |
